“Also recorded” adds a separate entry of the source.
Assays:
[1] = Tear amount by phenol red-impregnated cotton threads, dry eye model; format: in vivo, NOD.B10.H2b mice; conditions: 10 days of treatment after removal of dry stress; normal 0.22±0.01, DS 10D 0.03±0.01
Protocol: Tear production was measured by a method reported using phenol red-impregnated cotton threads (Zone-Quick, Oasis, Glendora, Calif.) (Villareal A L, Farley W, Pflugfelder S C. Effect of topical ophthalmic epinastine and olopatadine on tear volume in mice. Eye Contact Lens. 2006; 32 (6): 272-276.). […] The measured lachrymal fluid in the millimeter was compared with a standard curve expressed as a cotton thread which was soaked with the expected tear amount of mouse of basic solution ([…] of 0.9% salt and 5 mL of 5 N NaOH) for 20 seconds.
The degree of tear generation was measured by phenol red-impregnated cotton threads.

[2] = test system: conjunctival goblet cells; assay: Distribution of conjunctival goblet cells (PAS staining), dry eye model; format: in vivo, NOD.B10.H2b mice; conditions: 10 days of treatment after removal of dry stress; normal 14.38±0.44, DS 10D 6.02±0.29
Protocol: (§1) NOD.B10.H2^b mice were purchased from Jackson Laboratory (Bar Harbor, Me., USA). Animal experiments were carried out in accordance with the guidelines approved by the University of Inje (No.; 2014-029) and ARVO regarding animal use for eye and vision research. NOD.B10.H2^b mice at 12-16 weeks old were exposed to 40-50% ambient humidity and ventilation using a fan for 18 hours a day as dry stress and subcutaneously injected with 0.5 mg/0.2 mL muscarinic receptor blocker. In addition, scopolamine hydrobromide (Sigma-Aldrich, St. Louis, Mo.) was injected alternately to the […] hips four times a day for 10 days at 9 am, […].
(§2) After 10 days of ocular dry stress, the scopolamine injection was stopped, and switched to a normal humidity and temperature environment and the dry stress was removed, 10 mg/ml Hyp-[…] and collagen were dissolved in normal saline to administer 5 μL each 5 times a day for 10 days, and normal saline and 0.1% HA were administered to the eyeball 5 times a day for 10 days. Three mice were used in each of the six experimental groups using both eyes of the mice and all experiments were repeated.
The distribution of conjunctival goblet cells according to eye drop in dry eye mice was observed.

[3] = test system: corneal surface; assay: Corneal surface irregularity (smoothness) score, dry eye model; format: in vivo, NOD.B10.H2b mice; conditions: day 10 after removal of dry stress; grades 0-5; normal 0.33±0.58, DS 10D 4.33±0.58
Protocol: as §1, §2
As for the curvature of the corneal surface, a reflected image of the white ring was obtained from an optical fiber ring illumination of a stereoscopic microscope (SZX7; Olympus) after anesthetizing the animal. Corneal smoothness was assessed by grading the irregularity of corneal epithelial cells reflected in the white ring of the digital image. Corneal irregularity severity score was calculated by dividing the reflection ring into quadrants and grading into 5 grades according to degree of irregularity. No irregularity is grade 0, irregularity of ¼ (quarter) is grade 1; irregularity of 2/4 (two-quarters) is grade 2; irregularity of ¾ (three-quarters) is grade 3; entire irregularity is grade 4; and […] and thus all the rings were confirmed.
The degree of corneal curvature in each experiment group was quantified to confirm the bendability of the corneal surface.

[4] = test system: corneal epithelial cell; assay: Corneal epithelial cell detachment (H&E), dry eye model; format: in vivo, NOD.B10.H2b mice; conditions: 10 days of treatment after removal of dry stress; DS 10D 2.29±0.57
Protocol: as §1, §2

[5] = test system: VEGF, ICAM and MCP-1; assay: Quantitative real-time RT-PCR of retina and choroid, laser CNV model; format: in vivo, C57BL/6 mice; conditions: mouse, 14 days after laser; 5 μg; laser-treated group increased about 55 times
Protocol: In order to confirm the inhibitory effect of hydroxy proline-GQDGLAGPK on neovascularization-related gene expression, RNA was extracted using RNeasy Mini kit (Qiagen) in mixture of retina and choroid of extracted mice eyeballs, and cDNA was synthesized by using oligo(dT) primer and reverse transcriptase. PCR products were amplified using the specific primer set (COSMOGENETECH, Korea) shown in Table 1 and SYBR Green PCR 2X PreMix (Enzynomics) and for the PCR conditions, the samples were incubated at 95° C. for 10 minutes, and 40 PCR cycles at 95° C. for 15 seconds, 60° C. for 30 seconds and 72° C. for 15 seconds, were performed. Relative quantification was calculated using 2-(DDCT) method [Livak and Schmittgen, 2001; DDCT=(CT, target-CT, actin) control group (CT, target-CT, actin) control group].
After 14 days of laser irradiation in mouse, RNA was extracted from retina and choroid to analyze the gene expression by real-time RT-PCR.

[6] = test system: choroidal neovascularization (CNV); assay: Laser-induced choroidal neovascularization (CNV), lesion size by retina-choroid flat-mount; format: in vivo, C57BL/6 mice; conditions: mouse, laser irradiation; 2 μg intraocular injection for 5 days
Protocol: C57BL/6 mice were purchased from Orient Bio and the animal experiments was carried out in accordance with the guidelines approved by the University of Inje (No, 2013-053) and ARVO regarding animal use for eye and vision studies. 6-week-old C57BL/6 mice were treated with diode green laser (532 nm, 150 mW, 0.1 sec, […], photocoagulator) to damage the retinal optic nerve area. […] The above experiment for each experiment group was performed using both eyes of five mice each. […]
The mouse was anesthetized and injected with 25 mg/ml of FITC-dextran in […] of retro-orbital. After 30 minutes, the mouse was euthanized and the eyeball was extracted and fixed with 10% formalin and then, the cornea and lens were removed and flat mounted on the cover glass. The neovasculature stained with FITC-dextran was observed by fluorescence microscopy (Leica) and the lesion size was measured by Image J program. […]

[7] = test system: human vascular endothelial cells (HUVEC); assay: Tubing assay (VEGF-induced tube formation); format: cell-based; conditions: 50 ng/ml recombinant human VEGF, 4 hours
Protocol: The antiangiogenic effect of hydroxy proline-GQDGLAGPK was confirmed by tubing assay using human vascular endothelial cells (HUVEC).
HUVEC cells were stained with calcein-AM and then dispensed on a Matrigel-coated 48-well plate, treated with collagen, CPI and CPII at concentrations together with 50 ng/ml of recombinant human VEGF, and after 4 hours of incubation at 37° C., tube formation was observed by fluorescence microscopy (Leica) and tube length was analyzed by Image lab software (Bio-Rad Laboratories).
Tubing assay using human vascular endothelial cells (HUVEC) was performed to confirm the anti-angiogenic effect of hydroxyl proline-GQDGLAGPK.

| Molecule | tear amount [1] [µL] | conjunctival goblet cells [2] | degree of curvature (irregularity score) of the corneal surface [3] [points] | corneal epithelial cell detachment [4] | VEGF gene expression in retina and choroid [5] | CNV lesions [6] | inhibition of tube formation (angiogenesis) [7] |
| --- | --- | --- | --- | --- | --- | --- | --- |
| O=c1ccn([C@@H]2O[C@H](COP(=O)([O-])OP(=O)([O-])OP(=O)([O-])OP(=O)([O-])OC[C@H]3O[C@@H](n4ccc(=O)[nH]c4=O)[C@H](O)[C@@H]3O)[C@@H](O)[C@H]2O)c(=O)[nH]1.[Na+].[Na+].[Na+].[Na+] [DQS, reference compound] | 0.16 ± 0.02 | 8.86±0.29 /0.1 mm^2 | 3.0±1.0 | 0.095±0.17 /0.1 mm^2 |  |  |  |
| Avastin: a remedy of an age-related macular degeneration; positive control [reference compound] |  |  |  |  | decreased to the level similar to that of the laser-untreated group |  |  |
| GDRGD [CPI] |  |  |  |  |  | reduced; also recorded: decreased | significant inhibition of angiogenesis |
| collagen [reference compound] | 0.13 ± 0.02 | 11.05±0.33 /0.1 mm^2 | 3.67±1.16 | 0.86±0.29 /0.1 mm^2 |  | reduced; also recorded: decreased | significant inhibition of angiogenesis |

— patent publication US10532084B2, “Chondrocyte extracellular matrix-derived peptide” (EYEBIO KOREA, priority 2016, dated 2020)
